{"source": "patent US9743685B2", "about": "“Mixtures having improved cooling effect” (SYMRISE AG, priority 2012, dated 2017)", "assay": "Sensory comparison of flavored formulation examples with the flavor not according to the invention", "assay_type": "in vivo"}
{"smiles": "C/C=C(/C=O)c1ccccc1", "note": "[2-phenyl-but-2-enal, 2-Phenyl-but-2-enal]", "values": [{"measurement": "Sensory effect compared to the flavor not according to the invention", "setting": "standard chewing gum, 2% peppermint type flavor (Example 2.11)", "value": "intensified feeling of freshness together with an increased menthol taste and perception of coolness"}, {"measurement": "Sensory effect compared to the flavor not according to the invention", "setting": "sugar-free chewing gum, 1% Cinnamon type flavor Cool (Example 2.10), especially in the initial phase of consumption", "value": "intensified feeling of freshness together with an increased menthol taste and perception of coolness"}, {"measurement": "Sensory effect compared to the flavor not according to the invention", "setting": "toothpaste (Silica opaque), 1% peppermint type flavor Cool (Example 2.14)", "value": "fresher mouthfeel together with an increased menthol taste and perception of coolness"}, {"measurement": "Sensory effect compared to the flavor not according to the invention", "setting": "toothpaste (phosphate base), 1% spearmint type flavor (Example 2.12), especially at the start of brushing", "value": "definite feeling of freshness together with an increased menthol taste and perception of coolness"}, {"measurement": "Sensory effect compared to the flavor not according to the invention", "setting": "toothpaste (transparent gel), 1% cinnamon type flavor (Example 2.13)", "value": "clearer freshness profile together with an increased menthol taste and perception of coolness"}]}
